Results published in patent publication US12201610B2, “Compositions comprising aticaprant” (Janssen Pharmaceuticals, Inc., priority 2022, dated 2025).

System: subjects with MDD
Test: SHAPS total score / anhedonia level (Example 6)
Assay type: in vivo, human
Details: for SHAPS Total Score Change from Baseline LSMean (SE) / SHAPS Total Score LSMean Difference (SE) Treatment Placebo: MMRM; for SHAPS Total Score Effect Size: negative favors aticaprant
Description: To assess a potential effect on anhedonia, an anhedonia scale may be used. For example, the Snaith-Hamilton Pleasure Scale (SHAPS) analysis is a validated scale for the measurement of anhedonia. The SHAPS is a subject completed scale in which subjects score whether or not they experience pleasure in performing a list of activities or experiences. The SHAPS is a self-reported 14-item instrument, developed for the assessment of hedonic capacity. Subjects score whether they experience pleasure in performing a list of activities or experiences. Subjects can rate the answers as 1-4 where 1 indicates “Definitely agree”, 2 indicates “Agree”, 3 indicates “Disagree” and 4 indicates “Definitely disagree”. The subject's item responses are summed to provide a total score ranging from 14 to 56. A higher total SHAPS score indicates higher levels of current anhedonia. Physician/clinical judgment can be used to assess anhedonia separately or in conjunction with an anhedonia scale.
In some embodiments, the patient has moderate anhedonia. In other embodiments, the patient has severe anhedonia. An assessment of moderate or severe anhedonia is typically determined physician/clinical judgment and/or by one or more tests that provide insight into whether a patient has anhedonia. For example, the severity of the anhedonia may be determined using the SHAPS method. In some embodiments, a patient with moderate or severe anhedonia is considered to have a high level of anhedonia. For example, a patient with a SHAPS score of 38 or greater is considered to have moderate to severe anhedonia that can be considered a high level of anhedonia. In some embodiments, a high level of anhedonia is reflected by a SHAPS score of at least about 40, about 42, about 44, about 46, about 48, about 50, about 52, about 54, about 56, […]. A patient with mild or no anhedonia would be considered to have a low level of anhedonia that is assessed by physician/clinical judgment and/or one or more tests. For example, a patient with a SHAPS score of less than 38 is considered to have low anhedonia. In certain embodiments, a patient with mild anhedonia may have a SHAPS score of 20 to less than 38, for example, a SHAPS score of 20 to about 36, about 22 to about 36, about 24 to about 36, about 26 to about 36, about 26 to about 34, about 26 to about 32, about 26 to about 30, about 26 to about 28, about 28 to about 36, about 28 to about 36, about 30, to about 36, about 32 to about 36, about 34 to about 36, about 20 to about 34, about 22 to about 34, about 24 to about 34, about 26 to about 32, about 26 to about 30, about 26 to about 28, about 28 to about 36, about 28 to about 34, about 28 to about 32, about 28 to about 30, about 30 to about 36, about 30 to about 34, about 30 to about 32, about 32 to about 36, about 32 to about 34, or about 34 to about 36. Typically, a SHAPS score of less than 20 can be considered to correspond to normal hedonic functioning, and for purposes of this disclosure, would fall into the low category of anhedonia, e.g., a SHAPS score of less than 38.
iii. To investigate the effect of aticaprant versus placebo on depression related anhedonia as assessed by the SHAPS.
• (i) Depression: Montgomery-Åsberg Depression Rating Scale (MADRS), Clinical Global Impression-Severity (CGI-S), Symptoms of Major Depressive Disorder Scale (SMDDS), and Self-assessment of treatment experience (SATE) • (ii) Anhedonia: Snaith-Hamilton Pleasure Scale (SHAPS) • (iii) Anxiety: Structured Interview Guide for the Hamilton Anxiety scale (SIGH-A) and HAM-A6 • (iv) Effects on Cognition: The Cognitive and Physical Functioning Questionnaire (CPFQ) • (v) Safety assessments
Changes in SHAPS total score were analyzed with the same MMRM model used for MADRS total score. The estimated LS Mean difference with 80% 2-sided CI at treatment week 6 between aticaprant and placebo was −0.7 [−1.81, 0.41]. See, FIG. 7 and Tables 28 and 29 and FIG. 18. The corresponding p-value was 0.419.

[1] = eITT Analysis Set, Treatment Baseline
[2] = eITT Analysis Set, Treatment Week 1
[3] = eITT Analysis Set, Treatment Week 3
[4] = eITT Analysis Set, Treatment Week 4
[5] = eITT Analysis Set, Treatment Week 5
[6] = eITT Analysis Set, Treatment Week 6
[7] = eITT, Treatment Week 1, 10 mg adjunctive to SSRI/SNRI
[8] = eITT, Treatment Week 3, 10 mg adjunctive to SSRI/SNRI
[9] = eITT, Treatment Week 4, 10 mg adjunctive to SSRI/SNRI
[10] = eITT, Treatment Week 5, 10 mg adjunctive to SSRI/SNRI
[11] = eITT, Treatment Week 6, 10 mg adjunctive to SSRI/SNRI
[12] = fITT Analysis Set, Baseline/Day 22, Table 42
[13] = fITT Analysis Set, Treatment Baseline
[14] = fITT Analysis Set, Treatment Week 1
[15] = fITT Analysis Set, Treatment Week 3
[16] = fITT Analysis Set, Treatment Week 4
[17] = fITT Analysis Set, Treatment Week 5
[18] = fITT Analysis Set, Treatment Week 6

## Cc1cc(C)cc(C2CCCN2Cc2ccc(Oc3ccc(C(N)=O)cc3F)cc2)c1 (centres unmarked) [aticaprant, 3-fluoro-4-4-2-(3,5-dimethylphenyl)pyrrolidin-1-yl-methylphenoxybenzamide]
Treatment Week 6, population not given, follows Table 29 (fITT)
  SHAPS total score estimated LS mean difference between aticaprant and placebo, MMRM: −0.8
[1]
  Frequency of subjects: High Level of Anhedonia (SHAPS Total Score >= 38), %: (43.33%)
  Frequency of subjects: Low Level of Anhedonia (20 <= SHAPS Total Score < 38), %: 56.67%
[2]
  SHAPS Total Score Change from Baseline Mean (SD): −1.9
  SHAPS Total Score Mean (SD): 34.5
  SHAPS Total Score Change from Baseline LSMean (SE): −1.7
  SHAPS Total Score LSMean Difference (SE) Treatment Placebo: −0.8 (0.86)
[3]
  SHAPS Total Score Change from Baseline Mean (SD): −3.4
  SHAPS Total Score Mean (SD): 33.0
  SHAPS Total Score Change from Baseline LSMean (SE): −3.2
  SHAPS Total Score LSMean Difference (SE) Treatment Placebo: −1.4 (0.86)
[4]
  SHAPS Total Score Change from Baseline Mean (SD): −4.5
  SHAPS Total Score Mean (SD): 32.0
  SHAPS Total Score Change from Baseline LSMean (SE): −4.3
  SHAPS Total Score LSMean Difference (SE) Treatment Placebo: −1.4 (0.86)
[5]
  SHAPS Total Score Change from Baseline Mean (SD): −4.3
  SHAPS Total Score Mean (SD): 32.4
  SHAPS Total Score Change from Baseline LSMean (SE): −4.0
  SHAPS Total Score LSMean Difference (SE) Treatment Placebo: −0.5 (0.87)
[6]
  Frequency of subjects: High Level of Anhedonia (SHAPS Total Score >= 38), %: (13.56%)
  Frequency of subjects: Low Level of Anhedonia (20 <= SHAPS Total Score < 38), %: 81.36%
  Frequency of subjects: No Anhedonia (SHAPS Total Score < 20), %: 5.08%
  SHAPS Total Score Change from Baseline Mean (SD): −4.6
  SHAPS Total Score Mean (SD): 31.9
  SHAPS Total Score Change from Baseline LSMean (SE): −4.4
  SHAPS Total Score LSMean Difference (SE) Treatment Placebo: −0.7 (0.87)
[7]
  SHAPS Total Score Mean Change from Baseline (SD): −1.9 (4.30)
  SHAPS Total Score Mean Change to Placebo (SD pooled): −0.6 (3.77)
eITT, Treatment Week 1, vs placebo
  SHAPS Total Score Effect Size: −0.15
[8]
  SHAPS Total Score Mean Change from Baseline (SD): −3.4 (5.25)
  SHAPS Total Score Mean Change to Placebo (SD pooled): −1.2 (4.96)
eITT, Treatment Week 3, vs placebo
  SHAPS Total Score Effect Size: −0.25
[9]
  SHAPS Total Score Mean Change from Baseline (SD): −4.5 (5.89)
  SHAPS Total Score Mean Change to Placebo (SD pooled): −1.2 (5.21)
eITT, Treatment Week 4, vs placebo
  SHAPS Total Score Effect Size: −0.23
[10]
  SHAPS Total Score Mean Change from Baseline (SD): −4.3 (6.07)
  SHAPS Total Score Mean Change to Placebo (SD pooled): −0.4 (5.49)
eITT, Treatment Week 5, vs placebo
  SHAPS Total Score Effect Size: −0.08
eITT, Treatment Week 6
  SHAPS total score estimated LS mean difference between aticaprant and placebo, MMRM: −0.7
[11]
  SHAPS Total Score Mean Change from Baseline (SD): −4.6 (6.23)
  SHAPS Total Score Mean Change to Placebo (SD pooled): −0.4 (5.66)
[12]
  Frequency of subjects: Anhedonia (SHAPS Total Score >=20), %: 98.8%
  Frequency of subjects: No Anhedonia (SHAPS Total Score < 20), %: 1.2%
[13]
  Frequency of subjects: High Level of Anhedonia (SHAPS Total Score >= 38), %: 36.14%
  Frequency of subjects: Low Level of Anhedonia (20 >= SHAPS Total Score <38), %: 62.65%
fITT Analysis Set, Treatment Baseline, Table 44
  Frequency of subjects: No Anhedonia (SHAPS Total Score < 20), %: 1.2%
[14]
  SHAPS Total Score Mean (SD): 32.9
  SHAPS Total Score Mean Change to Placebo (SD pooled): −0.6 (3.82)
  SHAPS Total Score Change from Baseline LSMean (SE): −1.9
  SHAPS Total Score LSMean Difference (SE) Treatment Placebo: −1.0 (0.72)
  SHAPS Total Score Effect Size: −0.15
fITT Analysis Set, Treatment Week 1 (Table 29)
  SHAPS Total Score Change from Baseline Mean (SD): −2.0
fITT Analysis Set, Treatment Week 1 (Table 30)
  SHAPS Total Score Mean Change from Baseline (SD): −2.0 (4.05)
[15]
  SHAPS Total Score Mean (SD): 31.9
  SHAPS Total Score Mean Change to Placebo (SD pooled): −1.0 (5.09)
  SHAPS Total Score Change from Baseline LSMean (SE): −3.1
  SHAPS Total Score LSMean Difference (SE) Treatment Placebo: −1.4 (0.73)
  SHAPS Total Score Effect Size: −0.20
fITT Analysis Set, Treatment Week 3 (Table 29)
  SHAPS Total Score Change from Baseline Mean (SD): −3.2
fITT Analysis Set, Treatment Week 3 (Table 30)
  SHAPS Total Score Mean Change from Baseline (SD): −3.2 (5.07)
[16]
  SHAPS Total Score Mean (SD): 30.8
  SHAPS Total Score Mean Change to Placebo (SD pooled): −1.2 (5.08)
  SHAPS Total Score Change from Baseline LSMean (SE): −4.1
  SHAPS Total Score LSMean Difference (SE) Treatment Placebo: −1.6 (0.73)
  SHAPS Total Score Effect Size: −0.23
fITT Analysis Set, Treatment Week 4 (Table 29)
  SHAPS Total Score Change from Baseline Mean (SD): −4.2
fITT Analysis Set, Treatment Week 4 (Table 30)
  SHAPS Total Score Mean Change from Baseline (SD): −4.2 (5.70)
[17]
  SHAPS Total Score Mean (SD): 30.9
  SHAPS Total Score Mean Change to Placebo (SD pooled): −0.5 (5.24)
  SHAPS Total Score Change from Baseline LSMean (SE): −4.1
  SHAPS Total Score LSMean Difference (SE) Treatment Placebo: −0.8 (0.73)
  SHAPS Total Score Effect Size: −0.09
fITT Analysis Set, Treatment Week 5 (Table 29)
  SHAPS Total Score Change from Baseline Mean (SD): −4.3
fITT Analysis Set, Treatment Week 5 (Table 30)
  SHAPS Total Score Mean Change from Baseline (SD): −4.3 (5.70)
[18]
  Frequency of subjects: High Level of Anhedonia (SHAPS Total Score >= 38), %: 10.39%
  Frequency of subjects: Low Level of Anhedonia (20 >= SHAPS Total Score <38), %: 80.52%
  Frequency of subjects: No Anhedonia (SHAPS Total Score < 20), %: 9.09%
  SHAPS Total Score Mean (SD): 30.5
  SHAPS Total Score Mean Change to Placebo (SD pooled): −0.5 (5.45)
  SHAPS Total Score Change from Baseline LSMean (SE): −4.5
  SHAPS Total Score LSMean Difference (SE) Treatment Placebo: −0.8 (0.73)
  SHAPS Total Score Effect Size: −0.08
fITT Analysis Set, Treatment Week 6 (Table 29)
  SHAPS Total Score Change from Baseline Mean (SD): −4.7
fITT Analysis Set, Treatment Week 6 (Table 30)
  SHAPS Total Score Mean Change from Baseline (SD): −4.7 (5.91)
fITT, Treatment Week 6
  SHAPS total score mean change from treatment baseline (SD): −4.7 (5.91)
  SHAPS total score observed effect size: 0.08
